One data set deals with gastric mucosa. Kind of data set: Gastroerosive activity of oral ASA on the gastric mucosa of Wistar rats (ulcer index, histopathology). To be noted: ASA 400 mg/Kg oral. In kind it is in vivo. The protocol: In view of this, it was decided to test the effect of the micronization of ASA (400 mg/Kg) and co-grinding thereof with collagen through oral administration on the mucosa of Wistar rats weighing 210 g and compare it with the effects of the administration of ASA (400 mg/Kg) in its non-micronized form.
In particular, a calculation was made of the effect of ASA on the so-called “ulcer score”, according to a method that differentiates the damage due to the acute administration of high doses of ASA given orally into classes of severity which range from the absence of lesions to the maximum score, which is equivalent to ulcers equal to or greater than 6 mm. Furthermore, an analysis was made of the effects of ASA, in the two formulations used, on the histopathological damage of the gastric mucosa after periodic acid Schiff/Alcian blue staining of the histological samples taken from the animals after the two treatments (FIG. 7).

Data set [1] is described as follows: Pharmacokinetics of ASA given orally or sublingually in healthy volunteers (plasma ASA by LC-MS). Type of data set: in vivo. To be noted: human, tablet; for AUC(0-t): read-out: AUC (0-24 h). On the procedure:
The pharmaceutical composition obtained by co-grinding a micronized drug with gelatine was tested in healthy volunteers in order to verify whether the product, in its amorphized form, brought advantages from the standpoint of bioavailability and an enhanced clinical effectiveness associated with an improvement in the safety profile. These tests confirmed that the co-grinding process and simultaneous amorphization of ASA with collagen enables a better absorption of the drug without compromising its effectiveness.
In particular, the administration of the pharmaceutical composition of ASA+collagen after co-grinding in tablet form at doses of 50 and 100 mg given sublingually and orally in groups of 20 healthy volunteers brought about an increase in the plasma concentrations of ASA, determined using the LC-MS method, compared to the administration of equivalent doses of ASA in crystalline form administered sublingually or orally.

For data set [2] the following is noted: amorphized by co-grinding with β-cyclodextrin or other polymers; cited from earlier work.
Another data set concerns thromboxane B2. The experiment in a line: Plasma thromboxane B2 / urinary thromboxane metabolites after ASA in healthy volunteers. Type of data set: in vivo. To be noted: plasma and urine ASA and urinary thromboxane metabolites, 7 days. On the procedure:
This effect was accompanied by a considerable therapeutic effectiveness, given that the plasma peak of thromboxane B2, a biomarker of the anti-aggregation effectiveness of ASA, came 1.5 hours earlier than with the crystalline form of the drug (FIG. 4). […] This fact was confirmed by examining both the plasma and urine concentrations of ASA and of the urinary metabolites of thromboxane after 7 days of administration (FIG. 5).

Data on three compounds can be found in US20180353429A1, “PRODUCT COMPRISING HYDROLIZED COLLAGEN AND AT LEAST ONE AMORPHOUS MICRONIZED DRUG, PROCESS FOR THE PREPARATION THEREOF AND RELATED USES IN MEDICAL FIELD” (S.B.M. S.r.l., priority 2015, published 2018).

Like-named read-outs stand apart in the source and are kept apart here.

Take `CC(=O)Oc1ccccc1C(=O)O` [ASA n.m., acetylsalicylic acid]: the Ulcer index in the data set with gastric mucosa (listed as NM-ASA) came to 36.12 ± 4.2; in the data set with gastric mucosa (listed as non-micronized ASA), 36.12±4.2. Further, the “histopathological damage of the gastric mucosa” value in the data set with gastric mucosa (periodic acid Schiff/Alcian blue staining) is listed as “degeneration of cells of the gastric mucosa”. Also, the peak concentration (Cmax) in data set [1] (ASA 50 mg oral) stood at 269 ± 85.4 ng/mL; in data set [1] (ASA 50 mg sublingual), 314 ± 89.5 ng/mL; in data set [1] (ASA 100 mg oral) it was 460 ± 73.2 ng/mL; in data set [1] (ASA 100 mg sublingual), 543 ± 68.3 ng/mL. The AUC(0-t) in data set [1] (ASA 50 mg oral) came out at 532 ± 123 ng·h/mL; in data set [1] (ASA 50 mg sublingual), 675 ± 75.6 ng·h/mL.
`CC(=O)[O][Pt]([NH2])([Cl])([Cl])([NH]C1CCCCC1)[O]C(C)=O` [JM216, bis-acetato-ammine-dichloro-cyclohexylamine-platinum (IV)]: the water solubility result in data set [2] is “greater water solubility”.
As to collagen, the “effects of collagen on its own” value in the data set with thromboxane B2 is “no significant effects”.

Broadly, the Cmax is the peak of the concentration-time curve.
